Assay results from PubChem BioAssay (NCI).
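A five-concentration, 48-hour dose response in 96-well plates underlies each endpoint, interpolated linearly between surrounding concentrations. GI50 = concentration required for 50% inhibition of growth. TGI: total growth inhibition.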

What was measured:
Assay in all cases: inhibition of tumour cell growth, NCI panel, 48 h
SN12C renal = tested on: SN12C renal
CAKI-1 renal = tested on: CAKI-1 renal
SW-620 colon = tested on: SW-620 colon
EKVX NSCLC = tested on: EKVX NSCLC
A549 NSCLC = tested on: A549 NSCLC
NCI/ADR-RES ovarian = tested on: NCI/ADR-RES ovarian
MALME-3M melanoma = tested on: MALME-3M melanoma
PC-3 prostate = tested on: PC-3 prostate
A498 renal = tested on: A498 renal
UACC-62 melanoma = tested on: UACC-62 melanoma

| SMILES | TGI (SN12C renal) [µM] | TGI (CAKI-1 renal) [µM] | TGI (SW-620 colon) [µM] | TGI (EKVX NSCLC) [µM] | TGI (A549 NSCLC) [µM] | TGI (NCI/ADR-RES ovarian) [µM] | TGI (MALME-3M melanoma) [µM] | TGI (PC-3 prostate) [µM] | TGI (A498 renal) [µM] | TGI (UACC-62 melanoma) [µM] | GI50 (SN12C renal) [µM] | GI50 (CAKI-1 renal) [µM] | GI50 (SW-620 colon) [µM] | GI50 (EKVX NSCLC) [µM] | GI50 (A549 NSCLC) [µM] | GI50 (NCI/ADR-RES ovarian) [µM] | GI50 (MALME-3M melanoma) [µM] | GI50 (PC-3 prostate) [µM] | GI50 (A498 renal) [µM] | GI50 (UACC-62 melanoma) [µM] |
| --- | --- | --- | --- | --- | --- | --- | --- | --- | --- | --- | --- | --- | --- | --- | --- | --- | --- | --- | --- | --- |
| O=C(/C=C/c1cccs1)c1ccccc1Cl | 30.2 | 23 | 40.9 | 30.8 | 1.4 | 44.9 | 26.7 | 34.5 | 24 | 27.5 |  |  |  |  |  |  |  |  |  |  |
| CCOC(=O)c1cn(C)c(=S)n2c1nc1ccccc12 | > 100 | > 100 | > 100 | > 100 | > 100 | > 100 |  | > 100 | > 100 | > 100 |  |  |  |  |  |  |  |  |  |  |
| CCN(CC)c1ccc2cc(-c3nc4ccccc4c(=O)[nH]3)c(=N)oc2c1 | > 100 | > 100 | > 100 | > 100 | > 100 | > 100 | > 100 | > 100 |  | > 100 |  |  |  |  |  |  |  |  |  |  |
| Cc1ccc(S(=O)(=O)n2cc(C#N)c(C#N)c2)cc1 | 69.1 | 59.1 | 80 | > 100 | 78.9 | > 100 | 33.9 | 85 | 71.9 | 33.7 |  |  |  |  |  |  |  |  |  |  |
| CC(C)C1(O)C(=O)N(c2c(F)c(F)c(F)c(F)c2F)C(=S)N1CCSc1ccccc1 (stereo unspecified) | 29.3 | 24.7 | 30.3 | 33.5 | 29.2 | 31 | 31.6 | 29.2 | 29.8 | 30.6 |  |  |  |  |  |  |  |  |  |  |
| Cc1ccc(/C(O)=C/c2nc3ccc([N+](=O)[O-])cc3nc2/C=C(\O)c2ccc(C)cc2)cc1 | > 100 | > 100 | > 100 | > 100 | > 100 | > 100 | > 100 | > 100 | > 100 | > 69.3 |  |  |  |  |  |  |  |  |  |  |
| COC(=O)c1c(-c2ccc(Cl)cc2)cc2c3ccccc3n(C)c2c1C(=O)OC | > 100 | > 100 | > 100 | > 100 | > 100 | > 100 | > 100 | > 100 | > 100 | > 100 |  |  |  |  |  |  |  |  |  |  |
| CCC(CC(C)C)Nc1ccc(NC(CC)CC(C)C)cc1 (stereo unspecified) | 32.2 | > 100 | 30.1 | 37.6 | 65.6 | 39.8 | 34.3 | 16.3 | 95.8 | 24.3 | 16 | 40.2 | 15.6 | 16.7 | 24.8 | 17.6 | 14.7 | 4 | 23.8 | 10.6 |
| CO[C@]1(CN2CCN3CCCC[C@@H]3C2)/C=C/C[C@H](C)[C@@H](C)S(=O)(=O)NC(=O)c2ccc3c(c2)N(C[C@@H]2CC[C@H]21)C[C@@]1(CCCc2cc(Cl)ccc21)CO3 | 3.08 | 4.24 |  | 5.1 | 10.6 |  |  |  | 6.48 | 1.22 | 1.6 | 1.79 |  | 1.55 | 2.75 |  |  |  | 2.68 | 0.148 |
| CCOC(=O)C1CCCCN1CCc1c[nH]c2ccccc12 (stereo unspecified) | > 100 | > 100 | > 100 | > 100 | > 100 | > 100 | > 100 | > 100 | > 100 | > 100 |  |  |  |  |  |  |  |  |  |  |
| CC(=O)CC(=O)CCC(=O)O | > 100 | > 100 | > 100 | > 100 | > 100 |  | > 100 |  |  |  |  |  |  |  |  |  |  |  |  |  |
| C/C(=N\Nc1nc2ccccc2[nH]1)c1cc2ccccc2cn1 | 1.06 | 1.32 | 1.65 | 1.35 | > 100 | 1.16 | 0.664 |  | 0.665 | 1.09 |  |  |  |  |  |  |  |  |  |  |
| O=C1CC(n2cccc2)c2c(Br)sc(Br)c21 (stereo unspecified) | 31.1 | 19.8 | 41.3 | 33.3 | 61.8 | 69.6 | 38 | 33.9 | 56.5 | 30.3 |  |  |  |  |  |  |  |  |  |  |
| CC(C)(C)OC(=O)n1cc(C2CN(O)C(=O)C23CCC(=O)N3Cc2ccccc2)c2ccccc21 (stereo unspecified) | 81.8 | > 100 | > 100 | 47.7 | > 100 | > 100 | > 100 | > 100 | 74.8 | > 100 |  |  |  |  |  |  |  |  |  |  |
| Cc1csc(NC(=NCCN2CCOCC2)Nc2nc(C)cs2)n1 | > 100 | > 100 | > 100 | > 100 | > 100 | > 100 | > 100 |  | > 100 | > 100 |  |  |  |  |  |  |  |  |  |  |
| CSc1ccc(/C=C2\N=C(c3ccccc3)N(/N=C/c3cc4cc(C)ccc4nc3Cl)C2=O)cc1 | 35.6 | 45.3 | > 100 | > 100 | 59 | 78.1 |  | 38 | 43 | 33.7 |  |  |  |  |  |  |  |  |  |  |
| CC(=O)O[C@H]1CC[C@@]2(C)[C@H](CC[C@@H]3[C@@H]2CC[C@]2(C)[C@@H](c4ccc(=O)oc4)C[C@H]4O[C@]342)C1 | 9.49 | 1.31 | 3.1 | 2.39 | 0.759 | 3.82 | 2.61 |  | 4.96 | 3.46 |  |  |  |  |  |  |  |  |  |  |
| Cc1nc2ccc(Cl)cc2c2c1CCN2c1ccccc1 | 17.2 | 28.1 | 63.9 | 68.2 | 46.6 | 26 | 32.3 | 29.5 | 34.3 | 23.6 |  |  |  |  |  |  |  |  |  |  |
| O=[N+]([O-])c1cccnc1-n1cnc2ccccc21 |  | > 100 | > 100 | > 100 | > 100 | > 100 | > 100 | > 100 | > 100 | > 100 |  |  |  |  |  |  |  |  |  |  |
